Assay results published in ChEMBL document CHEMBL1153640, “Selective naphthalene H(3) receptor inverse agonists with reduced potential to induce phospholipidosis and their quinoline analogs” (Bioorg Med Chem Lett, 2009).

What was measured:
[1] = Dissociation constant, pKa of the compound; type: physicochemical
[2] = target: T1, Histamine H3 receptor (Homo sapiens, UniProt Q9Y5N1); assay: Inhibition of human histamine H3 expressed in CHO cells by saturation binding experiment; type: cell-based
[3] = target: Histamine H1 receptor (Homo sapiens) (UniProt P35367); assay: Inhibition of human histamine H1 receptor at 3 uM
Sequence of Histamine H1 receptor (Homo sapiens) (P35367 whole entry): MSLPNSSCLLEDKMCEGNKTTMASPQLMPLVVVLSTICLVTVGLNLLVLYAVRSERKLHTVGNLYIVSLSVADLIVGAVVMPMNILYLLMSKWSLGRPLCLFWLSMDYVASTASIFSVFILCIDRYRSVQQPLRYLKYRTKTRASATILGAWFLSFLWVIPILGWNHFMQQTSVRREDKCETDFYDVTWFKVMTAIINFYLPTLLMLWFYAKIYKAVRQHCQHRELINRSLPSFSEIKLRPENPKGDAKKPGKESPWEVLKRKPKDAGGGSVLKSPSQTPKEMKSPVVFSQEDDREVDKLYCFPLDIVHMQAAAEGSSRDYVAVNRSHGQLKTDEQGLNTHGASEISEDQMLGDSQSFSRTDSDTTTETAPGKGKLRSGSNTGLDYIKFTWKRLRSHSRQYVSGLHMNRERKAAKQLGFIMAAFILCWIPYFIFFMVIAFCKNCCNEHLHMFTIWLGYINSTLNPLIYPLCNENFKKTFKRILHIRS

[4] = target: Histamine H2 receptor (Homo sapiens) (UniProt P25021); assay: Inhibition of human histamine H2 receptor at 3 uM
Sequence of Histamine H2 receptor (Homo sapiens) (P25021 whole entry): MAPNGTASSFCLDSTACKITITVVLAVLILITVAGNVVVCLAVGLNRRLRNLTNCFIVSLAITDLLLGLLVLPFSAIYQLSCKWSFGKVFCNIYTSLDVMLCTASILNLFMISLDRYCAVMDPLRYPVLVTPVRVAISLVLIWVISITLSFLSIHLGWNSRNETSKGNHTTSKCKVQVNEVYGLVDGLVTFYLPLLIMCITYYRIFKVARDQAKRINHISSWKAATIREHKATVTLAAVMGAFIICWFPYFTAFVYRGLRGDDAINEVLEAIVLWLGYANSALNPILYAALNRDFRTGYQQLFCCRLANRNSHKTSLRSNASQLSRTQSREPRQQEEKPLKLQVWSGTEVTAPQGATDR

[5] = target: Histamine H4 receptor (Homo sapiens) (UniProt Q9H3N8); assay: Inhibition of human histamine H4 receptor at 3 uM
Sequence of Histamine H4 receptor (Homo sapiens) (Q9H3N8 whole entry): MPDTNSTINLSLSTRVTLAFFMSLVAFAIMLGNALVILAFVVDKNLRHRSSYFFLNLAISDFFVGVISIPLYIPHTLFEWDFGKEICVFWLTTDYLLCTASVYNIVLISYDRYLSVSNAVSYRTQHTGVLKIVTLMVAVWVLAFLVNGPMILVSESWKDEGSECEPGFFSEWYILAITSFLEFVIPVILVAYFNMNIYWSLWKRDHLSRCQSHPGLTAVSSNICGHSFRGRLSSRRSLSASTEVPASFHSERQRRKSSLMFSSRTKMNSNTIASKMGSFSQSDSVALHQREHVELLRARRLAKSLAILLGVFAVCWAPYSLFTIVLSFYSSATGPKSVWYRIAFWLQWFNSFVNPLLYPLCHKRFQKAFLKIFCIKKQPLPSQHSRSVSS

[6] = target: T1, Histamine H3 receptor; assay: Inverse agonist activity at human histamine H3 receptor expressed in CHO cells by [35S]GTPgammaS binding assay; type: functional, cell-based
[7] = target: Cytochrome P450 3A4 (Homo sapiens, UniProt P08684); assay: Inhibition of CYP3A4; type: ADME
Sequence of Cytochrome P450 3A4 (P08684 whole entry): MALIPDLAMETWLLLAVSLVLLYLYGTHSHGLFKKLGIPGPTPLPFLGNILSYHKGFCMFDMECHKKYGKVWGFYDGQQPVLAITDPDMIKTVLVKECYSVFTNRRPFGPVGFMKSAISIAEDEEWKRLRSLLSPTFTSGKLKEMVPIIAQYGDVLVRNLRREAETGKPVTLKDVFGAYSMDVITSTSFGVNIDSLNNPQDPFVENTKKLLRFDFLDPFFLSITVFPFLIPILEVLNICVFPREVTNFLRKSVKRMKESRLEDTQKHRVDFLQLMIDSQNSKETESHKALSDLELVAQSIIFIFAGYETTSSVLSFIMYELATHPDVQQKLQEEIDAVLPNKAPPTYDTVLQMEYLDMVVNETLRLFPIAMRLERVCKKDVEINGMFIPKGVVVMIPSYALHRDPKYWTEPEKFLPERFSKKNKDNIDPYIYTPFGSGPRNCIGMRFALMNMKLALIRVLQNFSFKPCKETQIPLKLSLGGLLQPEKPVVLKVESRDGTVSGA

[8] = target: Cytochrome P450 2D6 (Homo sapiens, UniProt P10635); assay: Inhibition of CYP2D6; type: ADME
Sequence of Cytochrome P450 2D6 (P10635 whole entry): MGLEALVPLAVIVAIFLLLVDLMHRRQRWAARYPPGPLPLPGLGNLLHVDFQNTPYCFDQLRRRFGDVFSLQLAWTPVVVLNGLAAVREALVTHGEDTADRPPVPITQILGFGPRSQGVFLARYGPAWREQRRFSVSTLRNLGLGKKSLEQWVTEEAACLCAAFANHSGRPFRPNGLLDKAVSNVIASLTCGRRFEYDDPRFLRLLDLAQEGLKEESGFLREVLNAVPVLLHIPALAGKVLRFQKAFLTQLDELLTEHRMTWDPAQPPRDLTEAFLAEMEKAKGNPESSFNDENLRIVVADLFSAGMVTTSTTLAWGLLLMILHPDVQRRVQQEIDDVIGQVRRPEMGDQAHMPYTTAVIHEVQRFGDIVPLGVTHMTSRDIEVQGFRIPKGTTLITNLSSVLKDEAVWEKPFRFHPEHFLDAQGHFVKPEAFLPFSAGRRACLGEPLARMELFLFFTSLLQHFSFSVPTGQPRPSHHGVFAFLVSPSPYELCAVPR

[9] = target: T2, Cytochrome P450 1A2 (Homo sapiens, UniProt P05177); assay: Inhibition of CYP1A2; type: ADME
T2 sequence (P05177 whole entry): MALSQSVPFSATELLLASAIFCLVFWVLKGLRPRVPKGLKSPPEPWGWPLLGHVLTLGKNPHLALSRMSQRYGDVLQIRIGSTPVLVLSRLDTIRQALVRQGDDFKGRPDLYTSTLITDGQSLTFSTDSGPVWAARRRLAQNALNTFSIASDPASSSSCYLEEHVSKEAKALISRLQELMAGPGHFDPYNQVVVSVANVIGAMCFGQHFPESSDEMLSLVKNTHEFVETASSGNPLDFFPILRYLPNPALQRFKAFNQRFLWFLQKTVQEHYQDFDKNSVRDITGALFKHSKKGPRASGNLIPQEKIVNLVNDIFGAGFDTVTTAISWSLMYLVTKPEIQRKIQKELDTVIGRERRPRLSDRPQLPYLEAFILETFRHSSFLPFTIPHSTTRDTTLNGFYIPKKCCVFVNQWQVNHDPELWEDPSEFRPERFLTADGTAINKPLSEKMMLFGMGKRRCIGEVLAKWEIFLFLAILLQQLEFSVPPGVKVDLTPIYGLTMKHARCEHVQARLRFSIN

[10] = target: Cytochrome P450 2C9 (Homo sapiens, UniProt P11712); assay: Inhibition of CYP2C9; type: ADME
Sequence of Cytochrome P450 2C9 (P11712 whole entry): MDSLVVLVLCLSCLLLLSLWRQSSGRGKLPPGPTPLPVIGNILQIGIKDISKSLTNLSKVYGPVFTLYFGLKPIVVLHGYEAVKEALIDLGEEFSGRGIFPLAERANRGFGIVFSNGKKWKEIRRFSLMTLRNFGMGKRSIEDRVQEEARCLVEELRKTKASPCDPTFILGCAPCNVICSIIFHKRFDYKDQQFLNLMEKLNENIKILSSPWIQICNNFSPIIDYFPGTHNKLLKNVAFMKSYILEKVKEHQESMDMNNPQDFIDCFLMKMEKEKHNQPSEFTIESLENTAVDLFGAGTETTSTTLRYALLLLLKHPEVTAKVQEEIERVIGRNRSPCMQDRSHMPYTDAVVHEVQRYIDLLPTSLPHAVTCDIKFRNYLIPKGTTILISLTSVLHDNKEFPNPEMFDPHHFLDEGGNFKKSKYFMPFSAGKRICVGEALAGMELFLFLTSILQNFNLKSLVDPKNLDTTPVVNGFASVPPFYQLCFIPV

[11] = target: Cytochrome P450 2C19 (Homo sapiens, UniProt P33261); assay: Inhibition of CYP2C19; type: ADME
Sequence of Cytochrome P450 2C19 (P33261 whole entry): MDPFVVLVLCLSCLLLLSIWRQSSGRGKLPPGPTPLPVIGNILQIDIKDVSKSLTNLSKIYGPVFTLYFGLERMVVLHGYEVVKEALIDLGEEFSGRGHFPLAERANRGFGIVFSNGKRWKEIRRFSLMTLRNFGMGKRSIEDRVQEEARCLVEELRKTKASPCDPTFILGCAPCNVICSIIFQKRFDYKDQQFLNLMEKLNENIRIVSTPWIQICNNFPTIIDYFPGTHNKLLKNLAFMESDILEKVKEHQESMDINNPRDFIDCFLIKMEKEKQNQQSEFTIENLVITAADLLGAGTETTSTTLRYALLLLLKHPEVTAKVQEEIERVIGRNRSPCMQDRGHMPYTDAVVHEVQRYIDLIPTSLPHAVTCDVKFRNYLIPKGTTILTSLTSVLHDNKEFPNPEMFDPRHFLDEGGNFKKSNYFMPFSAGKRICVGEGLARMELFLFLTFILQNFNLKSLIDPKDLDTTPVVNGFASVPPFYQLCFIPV

[12] = Lipophilicity, log D at pH 7.4; type: physicochemical; settings: buffer
[13] = Metabolic stability in rat liver microsomes assessed as clearance per mg of protein; type: ADME, Microsome
[14] = Metabolic stability in human liver microsomes assessed as clearance per mg of protein; type: ADME, Microsome
[15] = tested on: Salmonella enterica subsp. enterica; assay: Toxicity in Salmonella Typhimurium assessed as increase in number of revertant colonies by AMES microsuspension assay; type: organism-based; settings: salmonella enterica subsp. enterica serovar typhimurium
[16] = Genotoxicity in mammalian cells assessed as increase in number of micronucleated cells by micronucleus test; type: cell-based
[17] = Solubility in 10 mM DMSO by lyophilizated solubility assay; type: physicochemical
[18] = Membrane permeability by PAMPA; type: ADME; settings: read-out: permeability
[19] = tested on: Phospholipidosis; assay: In vitro phospholipidosis in fibroblasts; type: ADME, cell-based; settings: fibroblast

T1 sequence (Q9Y5N1 whole entry): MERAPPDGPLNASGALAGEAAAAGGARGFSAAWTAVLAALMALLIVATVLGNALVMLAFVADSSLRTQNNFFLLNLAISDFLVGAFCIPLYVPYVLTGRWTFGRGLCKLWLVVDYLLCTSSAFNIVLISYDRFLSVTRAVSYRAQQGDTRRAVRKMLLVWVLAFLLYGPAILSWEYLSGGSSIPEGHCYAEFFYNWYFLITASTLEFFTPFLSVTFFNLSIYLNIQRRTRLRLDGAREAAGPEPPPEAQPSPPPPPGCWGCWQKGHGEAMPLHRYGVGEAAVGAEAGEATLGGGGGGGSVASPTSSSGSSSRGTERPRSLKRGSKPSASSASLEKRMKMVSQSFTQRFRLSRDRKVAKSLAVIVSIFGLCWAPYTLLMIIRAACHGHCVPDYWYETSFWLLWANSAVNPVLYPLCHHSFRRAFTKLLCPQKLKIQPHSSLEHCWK

With `CC1CCN(C(=O)c2ccc3cc(OCCC4CCCN4C)ccc3c2)CC1` (stereo not given) the pKa [1] was 9.9.
With `CC(C)N1CCC(Oc2ccc3cc(C(=O)N4CCC(CO)CC4)ccc3c2)CC1` the Ki [2] was 154 nM and the pKa [1] was 9.6.
Work on `CC(C)N1CCC(Oc2ccc3nc(C(=O)N4CCOCC4)ccc3c2)CC1` yielded a Ki [2] of 238 nM and a pKa [1] of 9.5.
For `CC(C)CN1CCC(Oc2ccc3cc(C(=O)N4CCC(C)CC4)ccc3c2)CC1`, the Ki [2] was 36 nM, the inhibition [3] was -4.5% and the inhibition [4] was 4.1%. The inhibition [5] was 0% and the pKa [1] was 9.8.
`CC1CCN(C(=O)c2ccc3cc(OCCCN4CCCCC4)ccc3n2)CC1` showed a Ki [2] of 300 nM and a pKa [1] of 9.7.
With `COC1CCN(C(=O)c2ccc3cc(OCCCN4CCCCC4)ccc3c2)CC1` the Ki [2] was 30 nM and the pKa [1] was 9.57.
`CC1CCN(C(=O)c2ccc3cc(OCCCN4CCCCC4)ccc3c2)CC1` gave a Ki [2] of 7 nM, an EC50 [6] of 200 nM and an inhibition [4] of -0.3%. The inhibition [5] was 0%, the IC50 [7] was greater than 12000 nM and the IC50 [8] was greater than 12000 nM. For the same molecule, the IC50 [9] was greater than 12000 nM, the IC50 [10] was greater than 12000 nM and the IC50 [11] was greater than 12000 nM. It also gave a logD [12] of 2.47, a microsomal CLint [13] of 32 µL/min/mg and a microsomal CLint [14] of 33 µL/min/mg. The Activity [15] was “Non-toxic”, the Activity [16] was “Non-toxic” and the pKa [1] was 9.86. It also gave a solubility [17] greater than 543 µg/mL and a Papp [18] of 2.6 ×10⁻⁶ cm/s.
For `CC(C)N1CCC(Oc2ccc3cc(C(=O)N4CCCC4C)ccc3c2)CC1` (stereo not given), the Ki [2] was 15 nM and the pKa [1] was 9.71.
With `CC(C)N1CCC(Oc2ccc3nc(C(=O)N4CCC4)ccc3c2)CC1` the Ki [2] was 62 nM and the pKa [1] was 9.5.
Work on `O=C(c1ccc2cc(OCCCN3CCCCC3)ccc2c1)N1CCC(CO)CC1` yielded a Ki [2] of 103 nM and a pKa [1] of 9.6.
Molecule `CC1CCN(C(=O)c2ccc3cc(OC4CCN(C(C)C)C4)ccc3c2)CC1` (stereo not given) has a Ki [2] of 234 nM and a pKa [1] of 9.4.
In the case of `CC(C)N1CCC(Oc2ccc3cc(C(=O)N4CCOCC4)ccc3c2)CC1`, the Phospholipidosis [19] is reported as “Not Active”, the Ki [2] is reported as 40 nM and the EC50 [6] is reported as 17 nM. For the same molecule, the inhibition [3] was 1.6%, the inhibition [4] was -9.9% and the inhibition [5] was 0%. The IC50 [7] was greater than 41000 nM, the IC50 [8] was greater than 41000 nM and the IC50 [9] was greater than 41000 nM. For the same molecule, the IC50 [10] was greater than 41000 nM, the IC50 [11] was greater than 41000 nM and the logD [12] was 0.6. The microsomal CLint [13] was 3 µL/min/mg, the microsomal CLint [14] was 23 µL/min/mg and the Activity [15] was “Non-toxic”. The Activity [16] was “Non-toxic”, the pKa [1] was 9.3 and the solubility [17] was greater than 558 µg/mL. For the same molecule, the Papp [18] was 2.5 ×10⁻⁶ cm/s.
For `CC(C)N1CCC(Oc2ccc3nc(C(=O)N4CCC[C@H]4C#N)ccc3c2)CC1`, the Ki [2] was 87 nM and the pKa [1] was 9.5.
With `COC1CCN(C(=O)c2ccc3cc(OC4CCN(C(C)C)CC4)ccc3c2)CC1` the Ki [2] was 62 nM and the pKa [1] was 9.4.
`O=C(c1ccc2cc(OCCCN3CCCCC3)ccc2n1)N1CCC1` showed a Ki [2] of 119 nM and a pKa [1] of 9.4.
Work on `CC1CCN(C(=O)c2ccc3cc(OCCCN4CCOCC4)ccc3c2)CC1` yielded a Ki [2] of 2000 nM and a pKa [1] of 7.8.
With `COC1CCN(C(=O)c2ccc3cc(OC4CCN(C(C)C)CC4)ccc3n2)CC1` the Ki [2] was 125 nM and the pKa [1] was 9.5.
With `CC(C)N1[C@@H]2CC(Oc3ccc4nc(C(=O)N5CCOCC5)ccc4c3)CC[C@H]1C2` (stereo not given in full) the Ki [2] was 30 nM and the pKa [1] was 8.97.
`CC1CCN(C(=O)c2ccc3cc(OC4CCN(C(C)C)CC4)ccc3c2)CC1` gave a Ki [2] of 34 nM, an inhibition [3] of 0.9% and an inhibition [4] of -8%. The inhibition [5] was 0% and the pKa [1] was 9.6.
